# Article PMC11729550, “Discovery of indole analogue Tc3 as a potent pyroptosis inducer and identification of its combination strategy against hepatic carcinoma” (Theranostics, 2025)
# Like-named read-outs stand apart in the source and are kept apart here.
# Key:
# HepG2 cells = assay: Anti-tumor activity assay (IC50 value), cells counted after three days; details: for fold increase in cellular potency: HepG2, compared to T1; for IC50: read-out: IC50 HepG2;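 on all read-outs here: HepG2 cells exposed to a drug concentration series for 3 days, then counted with a hemocytometer, inhibition relative to untreated control cell number, IC50 obtained by curve fitting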
# Method: (§1) For half maximal inhibitory concentrations (IC50) analysis, the hepatic carcinoma cells (HepG2, SK-Hep1 and PLC-PRF5) were seeded in 24-well plates respectively, then treated with drugs at concentration gradient for three days. The cells were counted with hemocytometer. […] A is the cell quantity of the control group and B is the cell quantity of the drug treated group. The cell inhibition rate was transformed using its logarithm. And the drug IC50 value were calculated by Graphpad Prsim 9 software with curve fitting of the drug concentration and log (cell inhibition rate).
# SK-Hep1 cells = assay: as above; details: read-out: IC50 SK-Hep1
# Method: as §1
# GSDME = assay: Western blot of GSDME activation; format: cell-based, human; details: HepG2 and SK-Hep1 cells
# Method: The whole-cell protein was extracted by RIPA lysis buffer contained with protease and phosphatase inhibitor cocktail (MCE, HY-K0010) from cells treated by indole analogues. Proteins were separated by sodium dodecyl sulfate-polyacrylamide gel electrophoresis (SDS-PAGE) gel, and then blotted onto polyvinylidene difluoride membrane (Millipore, IPVH00010). The membranes were incubated with the primary antibodies and the following horseradish peroxidase-conjugated (HRP) secondary antibodies. Next, membranes were washed and developed by ECL regent (Millipore, WBKLS0500).
# PLC-PRF5 cells = assay: Anti-tumor activity assay (IC50 value), cells counted after three days; format: cell-based; details: Homo sapiens, PLC-PRF-5, 72 h
# Excerpt: The cells were counted with hemocytometer.
# HepG2 and SK-Hep1 cells = assay: LDH release assay; format: cell-based, human; details: 0-4 μM, three days
# Method: The hepatic carcinoma cells were seeded in 96-well plates and treated with indole analogues for three days. Of note, the compounds were added into DMEM medium supplemented with 1% FBS. The cellular supernatant was collected for LDH release detection by using LDH cytotoxicity assay kit (Beyotime, C0016). Statistical analysis was combined with the cell viability data tested by WST-1 cell proliferation and cytotoxicity assay kit (Beyotime, C0035).
# [1] = Liver microsome metabolic stability assay; details: microsomes
# Method: The reaction media contained liver microsomes (0.5 mg/mL), 1.0 mM β-nicotinamide adenine dinucleotide phosphate (β-NADPH), 3 mM MgCl2 phosphate buffer. Microsomal suspensions were pre-incubated with Tc3 for 3 min at 37℃. The reaction was initiated with the addition of β-NADPH and samples were collected at 0, 5, 15, 30 and 60 min. The negative control was excluded of β-NADPH. Midazolam was incubated similarly as a positive control substrate. At each time point, an aliquot was mixed acetonitrile. Samples were centrifuged and then supernatant was mixed with ultrapure water for LC-MS/MS analysis.
SMILES,"IC50 (HepG2 cells; Homo sapiens, HepG2, 72 h)",further results
CSCC[C@H](N)C(=O)NCCCn1cc(/C=C2\S/C(=N\c3ccc(N4CCOCC4)cc3)N(Cc3ccc(F)cc3)C2=O)c2ccccc21 [Tc2],8.77 µM,fold increase in cellular potency (HepG2 cells): ~2 fold
CC(C)[C@H](N)C(=O)NCCCn1cc(/C=C2\S/C(=N\c3ccc(Cl)cc3)N(Cc3ccc(F)cc3)C2=O)c2ccccc21 [Tc8],15.2 µM,
O=C(NCCCn1cc(/C=C2\SC(=O)N(Cc3ccc(F)cc3)C2=O)c2cc(Br)ccc21)[C@@H]1CCCN1 [Tb4],9.23 µM,
CC(C)[C@H](N)C(=O)NCCCn1cc(/C=C2\S/C(=N\c3ccc(F)cc3)N(Cc3ccc(F)cc3)C2=O)c2ccccc21 [Tc7],12.4 µM,
"CNC(=O)c1cc(Oc2ccc(NC(=O)Nc3ccc(Cl)c(C(F)(F)F)c3)c(F)c2)ccn1 [Regorafenib, reference compound]",4.21 ± 0.33 µM,"IC50 (SK-Hep1 cells; Homo sapiens, SK-HEP1, 72 h): 4.23 ± 0.64 µM"
CC(C)[C@H](N)C(=O)NCCCn1cc(/C=C2\S/C(=N\c3ccc(C(F)(F)F)cc3)N(Cc3ccc(F)cc3)C2=O)c2ccccc21 [Tc9],10.8 µM,
N[C@@H](Cc1ccc(O)cc1)C(=O)NCCCn1cc(/C=C2\SC(=O)N(Cc3ccc(F)cc3)C2=O)c2cc(Br)ccc21 [Tb5],11.3 µM,
COc1ccc(/N=C2\S/C(=C\c3cn(CCCNC(=O)[C@@H](N)C(C)C)c4ccccc34)C(=O)N2Cc2ccc(F)cc2)cc1 [Tc10],> 100 µM,
CC[C@H](C)[C@H](N)C(=O)NCCCn1cc(/C=C2\SC(=O)N(Cc3ccc(F)cc3)C2=O)c2cc(Br)ccc21 [Tb7],1.79 µM,"GSDME activation / cleavage (western blotting) (GSDME): did not activate GSDME; IC50 (SK-Hep1 cells; Homo sapiens, SK-HEP1, 72 h): 2.21 ± 0.17 µM; IC50 (PLC-PRF5 cells): 1.26 ± 0.31 µM; fold increase in cellular potency (HepG2 cells): ~9 fold; LDH release levels (HepG2 and SK-Hep1 cells): increased"
CC[C@H](C)[C@H](N)C(=O)NCCCn1cc(/C=C2\S/C(=N\c3ccc(N4CCOCC4)cc3)N(Cc3ccc(F)cc3)C2=O)c2ccccc21 [Tc5],4.9 µM,fold increase in cellular potency (HepG2 cells): ~ 3 fold
CC(C)C(=O)NCCCn1cc(/C=C2\SC(=O)N(Cc3ccc(F)cc3)C2=O)c2ccccc21 [Ta3],> 50 µM,
CSCC[C@H](N)C(=O)NCCCn1cc(/C=C2\SC(=O)N(Cc3ccc(F)cc3)C2=O)c2cc(Br)ccc21 [Tb6],6.31 ± 0.35 µM,
"COc1cc2nccc(Oc3ccc(NC(=O)NC4CC4)c(Cl)c3)c2cc1C(N)=O [Lenvatinib, reference compound]",19.8 ± 1.43 µM,"IC50 (SK-Hep1 cells; Homo sapiens, SK-HEP1, 72 h): 12.4 ± 1.32 µM"
CC(C)[C@H](N)C(=O)NCCCn1cc(/C=C2\SC(=O)N(Cc3ccc(F)cc3)C2=O)c2ccccc21 [Tb2],6.74 ± 0.8 µM,
"Cc1ncc2n1-c1ccc(Cl)cc1C(c1ccccc1F)=NC2 [midazolam, reference compound]",,microsomal CLint at 1 μM ([1]; human): 1200 µL/min/mg; half-life at 1 μM ([1]; mouse): 2.72 min; microsomal CLint at 1 μM ([1]; mouse): 1270 µL/min/mg
CC(C)[C@H](N)C(=O)NCCCn1cc(/C=C2\S/C(=N\c3ccccc3)N(Cc3ccc(F)cc3)C2=O)c2ccccc21 [Tc6],> 100 µM,

SMILES,"IC50 (HepG2 cells; Homo sapiens, HepG2, 72 h)",further results
NCCCn1cc(/C=C2\SC(=O)N(Cc3ccc(F)cc3)C2=O)c2ccccc21 [Compound T1],15.9 µM,
O=C(NCCCn1cc(/C=C2\SC(=O)N(Cc3ccc(F)cc3)C2=O)c2ccccc21)[C@@H]1CCCN1 [Tb3],6.2 µM,
O=C(NCCCn1cc(/C=C2\SC(=O)N(Cc3ccc(F)cc3)C2=O)c2ccccc21)C1CCCC1 [Ta1],27.7 µM,
CCCCCCCC(=O)NCCCn1cc(/C=C2\SC(=O)N(Cc3ccc(F)cc3)C2=O)c2ccccc21 [Ta5],> 100 µM,
CC(C)[C@H](N)C(=O)NCCCn1cc(/C=C2\S/C(=N/C3CCCCC3)N(Cc3ccc(F)cc3)C2=O)c2ccccc21 [Tc11],20.9 µM,
CC(C)CCC(=O)NCCCn1cc(/C=C2\SC(=O)N(Cc3ccc(F)cc3)C2=O)c2ccccc21 [Ta4],> 100 µM,
"COc1cc2nccc(Oc3ccc(NC(=O)C4(C(=O)Nc5ccc(F)cc5)CC4)cc3)c2cc1OC [Cabozantinib, reference compound]",2.64 ± 0.85 µM,"IC50 (SK-Hep1 cells; Homo sapiens, SK-HEP1, 72 h): 2.26 ± 0.32 µM"
"CNC(=O)c1cc(Oc2ccc(NC(=O)Nc3ccc(Cl)c(C(F)(F)F)c3)cc2)ccn1 [Sorafenib, reference compound]",,IC50 (SK-Hep1 cells; 72 h): 4.4 µM; IC50 (HepG2 cells; 72 h): 6.06 µM
"Nc1ccn([C@@H]2O[C@H](CO)[C@@H](O)C2(F)F)c(=O)n1 [Gemcitabine, reference compound]",0.14 ± 0.01 µM,"IC50 (SK-Hep1 cells; Homo sapiens, SK-HEP1, 72 h): 0.04 ± 0.003 µM"
CCCC/N=C1\S/C(=C\c2cn(CCCNC(=O)[C@@H](N)C(C)C)c3ccccc23)C(=O)N1Cc1ccc(F)cc1 [Tc12],25 µM,
O=C(NCCCn1cc(/C=C2\S/C(=N\c3ccc(N4CCOCC4)cc3)N(Cc3ccc(F)cc3)C2=O)c2ccccc21)[C@@H]1CCCN1 [Tc4],2.46 µM,"GSDME activation / cleavage (western blotting) (GSDME): did not activate GSDME; IC50 (SK-Hep1 cells; Homo sapiens, SK-HEP1, 72 h): 2.3 ± 0.14 µM; IC50 (PLC-PRF5 cells): 2.92 ± 0.32 µM; fold increase in cellular potency (HepG2 cells): ~6.5 fold; LDH release levels (HepG2 and SK-Hep1 cells): increased"
COc1ccc2c(c1)c(/C=C1\SC(=O)N(Cc3ccc(F)cc3)C1=O)cn2CCCNC(=O)[C@@H]1CCCN1 [Tb9],7.47 µM,
NCCCn1cc(/C=C2\S/C(=N\c3ccc(N4CCOCC4)cc3)N(Cc3ccc(F)cc3)C2=O)c2ccccc21 [Tc1],5.13 µM,"GSDME activation / cleavage (western blotting) (GSDME): did not activate GSDME; IC50 (SK-Hep1 cells; Homo sapiens, SK-HEP1, 72 h): 2.87 ± 0.61 µM; IC50 (PLC-PRF5 cells): 2.71 ± 0.12 µM; fold increase in cellular potency (HepG2 cells): ~ 3 fold; LDH release levels (HepG2 and SK-Hep1 cells): increased"
COc1ccc2c(c1)c(/C=C1\SC(=O)N(Cc3ccc(F)cc3)C1=O)cn2CCCNC(=O)[C@@H](N)Cc1ccc(O)cc1 [Tb8],6.92 ± 1.21 µM,
C[C@H](N)C(=O)NCCCn1cc(/C=C2\SC(=O)N(Cc3ccc(F)cc3)C2=O)c2ccccc21 [Tb1],7.97 ± 0.3 µM,
